Test results: the NIST ThermoML archive (doi:10.1021/je800049b)
± gives the expanded uncertainty stated by the source.

Assays:
[1] = Crystal; DTA
[2] = Molar enthalpy of transition or fusion; conditions: Crystal; DSC

## O=P(O)(c1ccccc1)c1ccccc1 [diphenylphosphinic acid]
[1]
  Normal melting temperature: 192.97 ± 0.5 °C
[2]
  Molar enthalpy of transition or fusion: 5.24 ± 0.155 kcal/mol
